Results taken from patent publication US20110092505A1, “ORGANIC COMPOUNDS” (priority 2008, published 2011).
Read-outs that look alike come from different tables or passages of the source.

How the values were obtained:
[1] = system: agonist-dependent nuclear export of HDAC5; assay: HDAC5 nuclear export assay (GFP-HDAC5, Cellomics imaging); assay type: cell-based; settings: Rattus norvegicus, Ventricular myocyte, 2 h, read-out: Inhibitory Activity HDAC
Procedure: Compounds are evaluated in the HDAC5 nuclear export assay, a 384-well plate-based assay that enables high throughput screening (HTS) to identify small molecules that block agonist-dependent nuclear export of HDAC5. […] Neonatal rat ventricular myocytes (NRVMs) are infected with GFP-HDAC5 encoding virus and plated on gelatin-coated 384-well dishes. […] Following two hours of stimulation, cells are fixed and GFP-HDAC5 localization quantified using the Cellomics system, which provides a read-out of relative fluorescence intensity in the cytoplasmic versus nuclear compartment.

protein kinase D1 (PKD1) = target: T1, protein kinase D1 (PKD1) (Homo sapiens, UniProt Q15139); assay: PKD1 TR-FRET (LANCE) kinase assay; assay type: biochemical; settings: full length wild-type enzyme, 20 μM ATP, syntide-2 substrate; read-out: Inhibitory Activity PKD1
T1 construct: This assay is performed with full length wild-type enzyme that is expressed and purified from Sf9 insect cells; made in house; host or cells: Sf9 insect cells
T1 sequence (Q15139 1-912): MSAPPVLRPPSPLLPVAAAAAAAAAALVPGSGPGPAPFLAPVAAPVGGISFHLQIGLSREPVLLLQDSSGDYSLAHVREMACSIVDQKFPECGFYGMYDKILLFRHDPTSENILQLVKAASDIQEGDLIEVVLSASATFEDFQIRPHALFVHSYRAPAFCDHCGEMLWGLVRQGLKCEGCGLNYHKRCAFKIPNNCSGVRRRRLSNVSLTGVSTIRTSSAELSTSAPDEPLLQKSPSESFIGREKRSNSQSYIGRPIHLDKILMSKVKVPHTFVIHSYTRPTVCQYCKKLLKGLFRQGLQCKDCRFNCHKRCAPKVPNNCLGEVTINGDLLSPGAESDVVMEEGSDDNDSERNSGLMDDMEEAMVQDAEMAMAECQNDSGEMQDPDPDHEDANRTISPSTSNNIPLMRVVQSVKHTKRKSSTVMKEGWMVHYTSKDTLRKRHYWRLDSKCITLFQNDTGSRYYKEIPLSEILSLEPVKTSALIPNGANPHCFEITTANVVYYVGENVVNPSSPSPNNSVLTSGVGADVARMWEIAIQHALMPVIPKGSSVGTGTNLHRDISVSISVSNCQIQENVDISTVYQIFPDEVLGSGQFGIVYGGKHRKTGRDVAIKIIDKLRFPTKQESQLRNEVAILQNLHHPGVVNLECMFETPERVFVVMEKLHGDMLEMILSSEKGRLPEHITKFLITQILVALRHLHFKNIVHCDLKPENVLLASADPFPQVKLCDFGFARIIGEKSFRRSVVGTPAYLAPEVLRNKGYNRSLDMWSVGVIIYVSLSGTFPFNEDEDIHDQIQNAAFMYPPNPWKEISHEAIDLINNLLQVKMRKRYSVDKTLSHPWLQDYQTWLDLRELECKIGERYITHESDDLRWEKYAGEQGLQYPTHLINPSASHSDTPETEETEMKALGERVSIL
From the text: (§1) The assay to measure protein kinase D1 (PKD1) activity is a time-resolved fluorescence resonance transfer (TR-FRET) assay using PerkinElmer's LANCE™ technology. In this case, a biotinylated syntide-2 peptide is used as the substrate in this reaction. Phosphorylation of the syntide-2 substrate is detected by a specific antibody that recognizes the phosphorylated peptide. A second fluorophore, APC, is conjugated to streptavidin that binds the biotinylated syntide-2 peptide. […] Therefore, when the europium labeled secondary antibody binds on the phosphorylated peptide, it is brought into close contact with the APC and excites this fluorophore.
(§2) This assay is performed with full length wild-type enzyme that is expressed and purified from Sf9 insect cells. The reaction buffer consists of 35 mM Tris-HCl pH7.5, 5 mM MgCl2, 0.02% Tween-20, 20 μM ATP, 1 mM DTT and 0.2 μg/mL PKD1 enzyme. The enzyme reaction is initiated by the addition of 2 μM syntide-2 peptide substrate and the reaction carried out for 50 minutes at room temperature. The reaction is stopped by a stop/detection Buffer consisting of 50 mM EDTA, 0.18 mg/mL rabbit polyclonal anti-phospho Syntide-2 antibody, 0.5 nM europium labeled anti-rabbit IgG and 10 nM streptavidin conjugated APC. […] IC50 values are calculated using an Activity Base (IDBS) software program.

protein kinase D2 (PKD2) = target: T2, protein kinase D2 (PKD2) (Homo sapiens, UniProt Q9BZL6); assay: PKD2 TR-FRET (LANCE) kinase assay; assay type: biochemical; settings: full length wild-type enzyme, 20 μM ATP, syntide-2 substrate; read-out: Inhibitory Activity PKD2
T2 construct: This assay is performed with full length wild-type enzyme purchase from Invitrogen; purchased Invitrogen
T2 sequence (Q9BZL6 1-878): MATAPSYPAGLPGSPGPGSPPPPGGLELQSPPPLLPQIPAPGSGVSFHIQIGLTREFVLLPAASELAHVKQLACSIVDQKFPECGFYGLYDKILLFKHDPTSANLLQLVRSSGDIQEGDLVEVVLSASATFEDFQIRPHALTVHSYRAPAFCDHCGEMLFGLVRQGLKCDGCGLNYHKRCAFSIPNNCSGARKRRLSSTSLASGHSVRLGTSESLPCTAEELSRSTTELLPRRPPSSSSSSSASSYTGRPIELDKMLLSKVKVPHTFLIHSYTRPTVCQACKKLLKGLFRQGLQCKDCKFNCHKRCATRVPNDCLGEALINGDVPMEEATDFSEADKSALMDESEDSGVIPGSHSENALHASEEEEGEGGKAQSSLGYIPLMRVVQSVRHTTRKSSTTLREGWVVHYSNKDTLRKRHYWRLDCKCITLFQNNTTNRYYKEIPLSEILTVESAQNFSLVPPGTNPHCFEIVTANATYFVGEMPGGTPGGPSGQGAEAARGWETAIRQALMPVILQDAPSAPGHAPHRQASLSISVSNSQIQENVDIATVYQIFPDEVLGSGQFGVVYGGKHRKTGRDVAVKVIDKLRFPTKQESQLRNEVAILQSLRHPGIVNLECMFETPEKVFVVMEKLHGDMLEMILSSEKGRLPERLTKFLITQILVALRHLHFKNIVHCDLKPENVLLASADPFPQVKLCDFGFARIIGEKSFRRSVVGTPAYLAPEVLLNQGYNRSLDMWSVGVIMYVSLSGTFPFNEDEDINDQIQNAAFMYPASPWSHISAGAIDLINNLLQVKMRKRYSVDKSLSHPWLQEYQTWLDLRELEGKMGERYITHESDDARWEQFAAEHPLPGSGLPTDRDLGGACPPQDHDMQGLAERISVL
From the text: as §1, with “D2 (PKD2)” for “D1 (PKD1)”
as §2, with “purchase” for “that is expressed and purified”, “Invitrogen.” for “Sf9 insect cells.”, “PKD2” for “PKD1”, “APC. After a one hour incubation with the stop/detection buffer, the reaction is read on an Envision 2100 Reader using a LANCE™ Eu/APC dual protocol.” for “APC.”

protein kinase D3 (PKD3) = target: T3, protein kinase D3 (PKD3) (Homo sapiens, UniProt O94806); assay: PKD3 TR-FRET (LANCE) kinase assay; assay type: biochemical; settings: full length wild-type enzyme, 20 μM ATP, syntide-2 substrate; read-out: Inhibitory Activity PKD3
T3 construct: This assay is performed with full length wild-type enzyme that is purchased from Invitrogen; purchased Invitrogen
T3 sequence (O94806 1-890): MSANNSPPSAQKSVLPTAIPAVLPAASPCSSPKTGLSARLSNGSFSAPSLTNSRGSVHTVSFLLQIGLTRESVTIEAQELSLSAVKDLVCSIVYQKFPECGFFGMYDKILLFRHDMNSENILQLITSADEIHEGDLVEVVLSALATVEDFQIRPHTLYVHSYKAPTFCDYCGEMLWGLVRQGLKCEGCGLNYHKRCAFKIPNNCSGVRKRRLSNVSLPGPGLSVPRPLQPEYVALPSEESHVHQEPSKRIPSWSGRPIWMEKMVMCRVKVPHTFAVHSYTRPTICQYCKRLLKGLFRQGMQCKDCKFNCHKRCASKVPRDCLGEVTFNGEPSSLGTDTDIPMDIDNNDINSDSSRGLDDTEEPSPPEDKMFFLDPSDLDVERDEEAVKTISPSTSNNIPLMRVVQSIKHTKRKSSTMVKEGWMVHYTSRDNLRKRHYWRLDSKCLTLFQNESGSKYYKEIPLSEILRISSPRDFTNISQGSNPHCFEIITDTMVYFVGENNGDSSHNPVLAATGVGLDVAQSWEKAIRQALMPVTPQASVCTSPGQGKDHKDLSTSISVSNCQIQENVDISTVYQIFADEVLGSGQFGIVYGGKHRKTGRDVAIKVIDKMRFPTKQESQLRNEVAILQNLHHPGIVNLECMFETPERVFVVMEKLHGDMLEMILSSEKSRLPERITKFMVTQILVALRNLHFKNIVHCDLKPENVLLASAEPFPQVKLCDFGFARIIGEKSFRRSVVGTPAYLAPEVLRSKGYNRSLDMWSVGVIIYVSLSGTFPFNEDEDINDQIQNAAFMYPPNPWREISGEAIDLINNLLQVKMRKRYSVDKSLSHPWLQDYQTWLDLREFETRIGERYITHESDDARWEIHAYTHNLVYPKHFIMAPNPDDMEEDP
From the text: as §1, with “D3 (PKD3)” for “D1 (PKD1)”
as §2, with “purchased” for “expressed and purified”, “Invitrogen.” for “Sf9 insect cells.”, “PKD3” for “PKD1”, “buffer” for “Buffer”, “APC. After a one hour incubation with the stop/detection buffer, the reaction is read on an Envision 2100 Reader using a LANCE™ Eu/APC dual protocol.” for “APC.”

| IC50 ([1]; neonatal rat ventricular myocytes, PGF2α stimulation, two hours) | SMILES | IC50 [1] | IC50 (protein kinase D1 (PKD1)) | IC50 (protein kinase D2 (PKD2)) | IC50 (protein kinase D3 (PKD3)) |
| --- | --- | --- | --- | --- | --- |
| – | C[C@@H]1CN(c2cc(C(N)=O)cc(-c3ccnc(NC4CCCCC4)c3)n2)CCN1 [2′-Cyclohexylamino-6-((R)-3-methylpiperazin-1-yl)-[2,4′]bipyridinyl-4-carboxylic acid amide] | 679 nM | 6 nM | 60 nM | – |
| > 1000 nM | Cn1ccc(Nc2cc(-c3cc(C#N)cc(N4CCNCC4)n3)ccn2)n1 [2′-(1-Methyl-1H-pyrazol-3-ylamino)-6-piperazin-1-yl-[2,4′]bipyridinyl-4-carbonitrile] | – | 8 nM | 76 nM | – |
| – | CC(C)Nc1cc(-c2cc(-c3cn[nH]c3)cc(N3CCNCC3)n2)ccn1 [iso-Propyl-[6-piperazin-1-yl-4-(1H-pyrazol-4-yl)-[2,4′]bipyridinyl-2′-yl]-amine] | 92 nM | – | 3 nM | < 1 nM |
